Data on 1 molecule can be found in patent US20150335738A1 (priority 2012, published 2015).

In the assay the test system is human SIgA in faeces. It counts as in vivo.

Molecules are shown by their SMILES.

As for `CC1=C(/C=C/C(C)=C/C=C/C(C)=C/C=C/C=C(C)/C=C/C=C(C)/C=C/C2=C(C)CCCC2(C)C)C(C)(C)CCC1` [Beta-carotene, beta-carotene], the “SIgA faeces, 3 days before exercise” value (3 days before exercise) was 88 micrograms per 100 g faeces. Where the note is “Reference (before exercise) = 100%”, this molecule yielded a Recovery in faeces of 13%. Moreover, the “SIgA faeces, day 1 after exercise” value (day 1 after exercise) is recorded as 8 micrograms per 100 g faeces. In addition, the “SIgA faeces, day 6 after exercise” value (day 6 after exercise) is listed as 11 micrograms per 100 g faeces.
